Data reported in patent US5652359A, “Oligonucleotides containing n-methyl thiolated bases having antiviral activity” (Epoch Pharmaceuticals, Inc., priority 1993, dated 1997).

Tested on: HIV-1 (strain LAY-1)
Assay: Inhibition of HIV virus replication in human peripheral blood mononuclear (PBM) cells
Format: cell-based
Conditions: Human immunodeficiency virus 1, PBMC, 144 h, supernatant RT activity six days after infection, read-out: IC50, 50% inhibition of replication of HIV
From the text: The group R' in Table 1 represents the cholesterol "tail" of Compound 7 which is connected to the 3'-terminal phosphate through a "linking group" derived from 4-hydroxy-2-hydroxymethylpyrrolidine and carbonyl connecting group. […] The IC50 numbers in Table 1 refer to the concentration of the compound which gives 50% inhibition of replication of HIV in a cell culture of human peripheral blood mononuclear (PBM) cells.
Cell Culture. Human PBM cells from healthy HIV-1 seronegative and hepatitis B virus seronegative donors were isolated by Ficoll-Hypaque discontinuous gradient centrifugation at 1,000× g for 30 minutes, washed twice in phosphate-buffered saline (pH 7.2; PBS), and pelleted at 300× g for 10 min. […]
Viruses. […] The virus was propagated in human PBM cells using RPMI 1640 medium, as described previously (McDougal, J. S., Cort, S. P., Kennedy, M. S. Cabridilla, C. D., Feorino, P. M., Francis, D. P., Hicks, D., Kalyanaramen, V. S. and Martin, L. S. (1985): Immunoassay for the detection and quantitation of infectious human retrovirus, lymphadenopathy-associated virus (LAV). J. Immun. Meth. 76:171-183) without PHA or fungizone and supplemented with 26 units/ml of recombinant interleukin-2 (Cetus Corporation, Emeryville, Calif.), 7 μg/ml DEAE-dextran (Pharmacia, Uppsala, Sweden), and 370 U/ml anti-human leukocyte (alpha) interferon (ICN, Lisle, Ill.). […]

**Q.** With `CO[C@@H]1[C@H](O)[C@@H](CO)O[C@H]1n1cnc2c(=S)n(C)cnc21` [Nucleoside, 9(2'-O-methyl-1-β-D-ribofuranosyl)-1-methyl-6-thiopurine] as the molecule, how does the IC50 read?
**A.** ~100 µM
